Converted amounts (≈) assume the structure as drawn. Values belong to the compound of their own block, whether it stands above or below them.
What was measured:
Experiment in all cases: ≥ marks a high value that may be exact or a test limit, other limits are often not marked, values filed in µg/mL are converted to µM
[1] = tested on: Candida albicans NCPF 1467
[2] = tested on: Escherichia coli NCTC 10418
[3] = tested on: Staphylococcus aureus NCTC 10788
[4] = tested on: Staphylococcus epidermidis
[5] = tested on: Staphylococcus aureus ATCC 25923
[6] = tested on: Enterococcus faecalis ATCC 29212
Escherichia coli UB1005 = tested on: Escherichia coli UB1005
Listeria monocytogenes = tested on: Listeria monocytogenes
[7] = tested on: Salmonella enterica subsp. enterica serovar Typhimurium ATCC 14028s
[8] = tested on: Pseudomonas aeruginosa K799
[9] = tested on: Escherichia coli ATCC 2592
[10] = tested on: Staphylococcus aureus ATCC 33591
[11] = tested on: Candida albicans ATCC 10231
[12] = tested on: Cryptococcus neoformans ATCC 32045
[13] = tested on: Pseudomonas aeruginosa ATCC 10145
[14] = tested on: Escherichia coli BW25113 ΔsbmA
[15] = tested on: Escherichia coli ATCC 25922
Escherichia coli BW25113 = tested on: Escherichia coli BW25113
[16] = tested on: Acinetobacter baumannii ATCC 19606
[17] = tested on: Klebsiella pneumoniae ATCC 700603
[18] = tested on: Salmonella enterica subsp. enterica serovar Typhimurium ATCC 14028
[19] = tested on: Pseudomonas aeruginosa ATCC 27853
[20] = tested on: Escherichia coli JW0368 ΔsbmA
[21] = tested on: Salmonella typhimurium SL1344
Escherichia coli J2210 = tested on: Escherichia coli J2210
[22] = tested on: Escherichia coli JW2778 ΔygdD
Escherichia coli JJ2489 = tested on: Escherichia coli JJ2489
Escherichia coli MC1041 = tested on: Escherichia coli MC1041
[23] = tested on: Salmonella enterica subsp. enterica serovar Enteritidis MH91989
Escherichia coli JW0013 = tested on: Escherichia coli JW0013

SMILES: CC[C@H](C)[C@@H]1NC(=O)[C@H](C(C)C)NC(=O)[C@H](C(C)C)NC(=O)[C@H]([C@@H](C)CC)NC(=O)[C@@H]2CCCN2C(=O)[C@@H](NC(=O)[C@H](CCCCN)NC(=O)[C@@H](N)CCCCN)CSSC[C@@H](C(=O)N[C@@H](CCCCN)C(=O)O)NC(=O)[C@H](C(C)C)NC(=O)[C@H](CCCN=C(N)N)NC1=O [KKCPIVVIRVCK]
MIC [4]: ≥ 46.2 µM
MIC [5]: > 46.2 µM
MIC [6]: > 46.2 µM
MIC (Escherichia coli UB1005): 11.5 µM (≈ 16 µg/mL)
MIC (Listeria monocytogenes): 11.5 µM (≈ 16 µg/mL)
MIC [7]: 23.1 µM (≈ 32 µg/mL)
MIC [8]: ≥ 46.2 µM

SMILES: CC(C)C[C@H](NC(=O)[C@H](CCCCN)NC(=O)[C@H](CC(C)C)NC(=O)[C@H](CCCCN)NC(=O)[C@H](CC(C)C)NC(=O)[C@H](CCCCN)NC(=O)[C@H](CC(C)C)NC(=O)[C@H](CCCCN)NC(=O)[C@H](CC(C)C)NC(=O)[C@H](CCCCN)NC(=O)[C@H](CC(C)C)NC(=O)[C@H](CCCCN)NC(=O)[C@H](CC(C)C)NC(=O)[C@H](CCCCN)NC(=O)[C@H](CC(C)C)NC(=O)[C@H](CCCCN)NC(=O)[C@H](CC(C)C)NC(=O)[C@H](CCCCN)NC(=O)[C@H](CC(C)C)NC(=O)[C@H](CCCCN)NC(=O)[C@@H](N)CC(C)C)C(=O)N[C@@H](CCCCN)C(=O)O [LKLKLKLKLKLKLKLKLKLKLK]
MIC [9]: ≥ 46.8 µM
MIC [10]: ≥ 93.5 µM
MIC [11]: 132 µM (≈ 354 µg/mL)
MIC [12]: 16.7 µM (≈ 44.5 µg/mL)
MIC [13]: 23.2 µM (≈ 62 µg/mL)

SMILES: CC[C@H](C)[C@H](NC(=O)[C@@H]1CCCN1)C(=O)N[C@@H](CCCN=C(N)N)C(=O)N[C@@H](CCCN=C(N)N)C(=O)N1CCC[C@H]1C(=O)N1CCC[C@H]1C(=O)N[C@H](C(=O)N[C@@H](CCCN=C(N)N)C(=O)N1CCC[C@H]1C(=O)N1CCC[C@H]1C(=O)N[C@@H](Cc1ccccc1)C(=O)N[C@@H](Cc1ccc(O)cc1)C(=O)N1CCC[C@H]1C(=O)N1CCC[C@H]1C(=O)N[C@@H](Cc1ccccc1)C(=O)N[C@@H](CCCN=C(N)N)C(=O)N1CCC[C@H]1C(=O)N1CCC[C@H]1C(=O)N[C@H](C(=O)N[C@@H](CCCN=C(N)N)C(=O)N1CCC[C@H]1C(=O)O)[C@@H](C)CC)[C@@H](C)CC [PIRRPPIRPPFYPPFRPPIRP]
MIC [14]: ≥ 64 µM
MIC [15]: > 64 µM
MIC (Escherichia coli BW25113): ≥ 64 µM
MIC [5]: > 64 µM
MIC [16]: > 64 µM
MIC [17]: > 64 µM
MIC [18]: > 64 µM
MIC [19]: > 64 µM

SMILES: CC[C@H](C)[C@H](NC(=O)[C@H](CCCN=C(N)N)NC(=O)[C@@H](N)CCCN=C(N)N)C(=O)N[C@@H](CCCCN)C(=O)N1CCC[C@H]1C(=O)N[C@@H](CCCN=C(N)N)C(=O)N1CCC[C@H]1C(=O)N1CCC[C@H]1C(=O)N[C@@H](CCCN=C(N)N)C(=O)N[C@@H](CC(C)C)C(=O)N1CCC[C@H]1C(=O)N[C@@H](CCCN=C(N)N)C(=O)N1CCC[C@H]1C(=O)N[C@@H](CCCN=C(N)N)C(=O)N1CCC[C@H]1C(=O)N[C@@H](CCCCN)C(=O)O [RRIKPRPPRLPRPRPK]
MIC [20]: 0.06 µM (≈ 0.121 µg/mL)
MIC [21]: 0.12 µM (≈ 0.242 µg/mL)
MIC (Escherichia coli J2210): 0.12 µM (≈ 0.242 µg/mL)
MIC [22]: 0.12 µM (≈ 0.242 µg/mL)
MIC (Escherichia coli BW25113): 0.06 µM (≈ 0.121 µg/mL)
MIC (Escherichia coli JJ2489): 0.12 µM (≈ 0.242 µg/mL)
MIC (Escherichia coli MC1041): 0.06 µM (≈ 0.121 µg/mL)
MIC [23]: 0.157 µM (≈ 0.317 µg/mL)
MIC (Escherichia coli JW0013): 0.06 µM (≈ 0.121 µg/mL)

The remaining lines, values ahead:

MIC [1]: 16 µM (≈ 31.1 µg/mL)
MIC [2]: ≥ 250 µM
MIC [3]: 8 µM (≈ 15.6 µg/mL)
SMILES: CC[C@H](C)[C@H](NC(=O)[C@H](C)NC(=O)[C@H](Cc1cnc[nH]1)NC(=O)[C@@H]1CCCN1C(=O)[C@@H](NC(=O)[C@H](CC(C)C)NC(=O)[C@H](CO)NC(=O)[C@H](Cc1ccccc1)NC(=O)[C@H](CC(C)C)NC(=O)[C@@H](N)Cc1ccccc1)[C@@H](C)CC)C(=O)N[C@@H](CO)C(=O)NCC(=O)N[C@@H](CC(C)C)C(=O)N[C@H](C(=O)N[C@@H](CO)C(=O)N[C@@H](C)C(=O)N[C@@H](Cc1ccccc1)C(=O)N[C@H](C=O)CCCCN)[C@@H](C)CC [FLFSLIPHAISGLISAFK]

MIC [1]: 3.12 µM (≈ 8 µg/mL)
MIC [2]: 12.5 µM (≈ 32 µg/mL)
MIC [3]: 3.12 µM (≈ 8 µg/mL)
SMILES: CC[C@H](C)[C@H](NC(=O)[C@H](C)NC(=O)[C@@H]1CCCN1C(=O)[C@H](CC(C)C)NC(=O)[C@@H](N)Cc1ccccc1)C(=O)N[C@@H](C)C(=O)NCC(=O)N[C@@H](CC(C)C)C(=O)N[C@@H](C)C(=O)N[C@@H](C)C(=O)N[C@@H](CCCCN)C(=O)N[C@@H](Cc1ccccc1)C(=O)N[C@@H](CC(C)C)C(=O)N1CCC[C@H]1C(=O)N[C@@H](CCCCN)C(=O)N[C@H](C(=O)N[C@@H](Cc1ccccc1)C(=O)N[C@H]1CSSC[C@@H](C(=O)O)NC(=O)[C@H](CCCCN)NC(=O)[C@H](CCCCN)NC(=O)[C@H]([C@@H](C)O)NC(=O)[C@H]([C@@H](C)CC)NC(=O)[C@H](C)NC1=O)[C@@H](C)CC [FLPAIAGLAAKFLPKIFCAITKKC]

MIC [9]: 30.2 µM (≈ 88 µg/mL)
MIC [10]: ≥ 85.8 µM
MIC [11]: 121 µM (≈ 354 µg/mL)
MIC [12]: ≥ 42.9 µM
MIC [13]: 22.3 µM (≈ 65 µg/mL)
SMILES: CC(C)C[C@H](NC(=O)[C@H](CCCCN)NC(=O)[C@H](CCCCN)NC(=O)[C@H](CC(C)C)NC(=O)[C@H](CC(C)C)NC(=O)[C@H](CCCCN)NC(=O)[C@H](CCCCN)NC(=O)[C@H](CC(C)C)NC(=O)[C@H](CC(C)C)NC(=O)[C@H](CCCCN)NC(=O)[C@H](CCCCN)NC(=O)[C@H](CC(C)C)NC(=O)[C@H](CC(C)C)NC(=O)[C@H](CCCCN)NC(=O)[C@H](CCCCN)NC(=O)[C@H](CC(C)C)NC(=O)[C@H](CC(C)C)NC(=O)[C@H](CCCCN)NC(=O)[C@H](CCCCN)NC(=O)[C@H](CC(C)C)NC(=O)[C@H](CC(C)C)NC(=O)[C@H](CCCCN)NC(=O)[C@H](CCCCN)NC(=O)[C@@H](N)CC(C)C)C(=O)O [LKKLLKKLLKKLLKKLLKKLLKKL]

MIC [14]: ≥ 64 µM
MIC [15]: 64 µM (≈ 122 µg/mL)
MIC (Escherichia coli BW25113): ≥ 64 µM
MIC [5]: > 64 µM
MIC [16]: > 64 µM
MIC [17]: > 64 µM
MIC [18]: > 64 µM
MIC [19]: > 64 µM
SMILES: CC[C@H](C)[C@H](NC(=O)[C@@H]1CCCN1C(=O)[C@@H]1CCCN1C(=O)[C@H](CCCN=C(N)N)NC(=O)[C@H](Cc1ccccc1)NC(=O)[C@@H](N)CCCN=C(N)N)C(=O)N[C@@H](CCCN=C(N)N)C(=O)N[C@@H](CCCN=C(N)N)C(=O)N1CCC[C@H]1C(=O)N1CCC[C@H]1C(=O)N[C@H](C(=O)N[C@@H](CCCN=C(N)N)C(=O)N1CCC[C@H]1C(=O)N1CCC[C@H]1C(=O)N[C@@H](Cc1ccccc1)C(=O)O)[C@@H](C)CC [RFRPPIRRPPIRPPF]

MIC [20]: 0.06 µM (≈ 0.125 µg/mL)
MIC [21]: 0.12 µM (≈ 0.25 µg/mL)
MIC (Escherichia coli J2210): 0.157 µM (≈ 0.326 µg/mL)
MIC [22]: 0.12 µM (≈ 0.25 µg/mL)
MIC (Escherichia coli BW25113): 0.078 µM (≈ 0.162 µg/mL)
MIC (Escherichia coli JJ2489): 0.12 µM (≈ 0.25 µg/mL)
MIC (Escherichia coli MC1041): 0.06 µM (≈ 0.125 µg/mL)
MIC [23]: 0.12 µM (≈ 0.25 µg/mL)
MIC (Escherichia coli JW0013): 0.06 µM (≈ 0.125 µg/mL)
SMILES: CC[C@H](C)[C@H](NC(=O)[C@H](CCCN=C(N)N)NC(=O)[C@@H](N)CCCN=C(N)N)C(=O)N[C@@H](CCCCN)C(=O)N[C@@H](CCCCN)C(=O)N[C@@H](CCCN=C(N)N)C(=O)N1CCC[C@H]1C(=O)N1CCC[C@H]1C(=O)N[C@@H](CCCN=C(N)N)C(=O)N[C@@H](CC(C)C)C(=O)N1CCC[C@H]1C(=O)N[C@@H](CCCN=C(N)N)C(=O)N1CCC[C@H]1C(=O)N[C@@H](CCCN=C(N)N)C(=O)N1CCC[C@H]1C(=O)N[C@@H](CCCN=C(N)N)C(=O)O [RRIKKRPPRLPRPRPR]

From DBAASP
